From article PMC4557640 (2015) come the findings set out here.

In test [1] the test system is Aod(xtal-wtL2) (RNA, riboswitch) GGGUCGUGACUGGCGAACAGGUGGGCCACCACCGGGGAGCGACCCUUGCCGCCCGCCUGGGCAA
The test is described as follows: ITC. Conditions: 135 mM KCl, 15 mM NaCl, 10 mM MgCl2; 10 mM K-HEPES pH 8.0.

In test [2] the test system is Aod(xtal) (RNA, riboswitch) GGGUCGUGACUGGCGAACAGGUGGGAAACCACCGGGGAGCGACCCUUGCCGCCCGCCUGGGCAA
The experiment in a line: ITC. Conditions: 135 mM KCl, 15 mM NaCl, 10 mM MgCl2; 10 mM K-HEPES pH 8.0.

For `NC(=O)c1ncn([C@@H]2O[C@H](COP(=O)(O)O)[C@@H](O)[C@H]2O)c1N`, the equilibrium dissociation constant (KD) (in general, the concentration at which binding is half-saturated) in test [1] was 470 ± 30 nM; in test [2], 1080 ± 60 nM.
